For 19 molecules, IC50 results are on record in patent US20240116988A1, “ANTI-ROR1 MACROCYCLIC PEPTIDES AND COMPOSITIONS” (BRISTOL-MYERS SQUIBB COMPANY, priority 2022, published 2024).

Usually IC50 stands for the concentration at which inhibition is half-maximal.

Positions of bridges follow the written chain, without caps; N, C: chain ends. Non-standard residues stand in square brackets, D forms with d. Residues, ends and D or L forms follow the SMILES beside them. ξ: configuration not given here. NMeF = CN[C@@H](Cc1ccccc1)C(=O)O; ξY = NC(Cc1ccc(O)cc1)C(=O)O; NMeA = CN[C@@H](C)C(=O)O

The target in the experiment is T1, human ROR1 (Homo sapiens, UniProt Q01973).
T1 construct: host or cells: HEK 293T cells, Tet-on system induced with doxycycline
T1 sequence (Q01973 30-937): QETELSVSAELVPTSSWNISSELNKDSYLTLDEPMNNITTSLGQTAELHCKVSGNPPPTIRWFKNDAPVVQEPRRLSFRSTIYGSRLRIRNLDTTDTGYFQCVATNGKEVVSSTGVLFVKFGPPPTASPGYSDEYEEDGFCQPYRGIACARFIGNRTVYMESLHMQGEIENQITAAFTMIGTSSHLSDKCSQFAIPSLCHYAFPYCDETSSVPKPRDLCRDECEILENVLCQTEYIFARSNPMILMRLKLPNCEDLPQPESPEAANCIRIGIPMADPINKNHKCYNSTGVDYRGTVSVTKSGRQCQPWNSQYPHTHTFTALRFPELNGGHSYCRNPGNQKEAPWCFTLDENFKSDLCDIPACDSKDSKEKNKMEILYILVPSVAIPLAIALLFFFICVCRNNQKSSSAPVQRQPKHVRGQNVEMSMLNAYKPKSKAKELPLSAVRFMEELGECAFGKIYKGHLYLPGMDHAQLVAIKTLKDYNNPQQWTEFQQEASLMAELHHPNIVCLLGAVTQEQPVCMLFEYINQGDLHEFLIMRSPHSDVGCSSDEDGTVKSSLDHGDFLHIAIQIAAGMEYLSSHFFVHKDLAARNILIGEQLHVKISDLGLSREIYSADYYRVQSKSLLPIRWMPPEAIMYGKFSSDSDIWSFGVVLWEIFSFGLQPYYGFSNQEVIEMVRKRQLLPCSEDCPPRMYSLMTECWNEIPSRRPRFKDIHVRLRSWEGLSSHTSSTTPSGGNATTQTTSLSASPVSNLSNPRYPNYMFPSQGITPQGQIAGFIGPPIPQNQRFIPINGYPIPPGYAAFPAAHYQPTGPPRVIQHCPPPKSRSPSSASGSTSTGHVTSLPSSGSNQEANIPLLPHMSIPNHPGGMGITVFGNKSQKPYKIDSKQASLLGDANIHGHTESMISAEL
The experiment in a line: ROR1 high content cell-based binding assay. The note with it: read-out: ROR1 Binding 293T Human HC Cell Based Assay IC50. In outline: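 Doxycycline-induced 293T cells expressing human ROR1, seeded overnight, were treated with compound plus 5-FAM-labeled ROR1-binding probe peptide (30 nM final) for 1 h at 37 °C. After washing and formaldehyde/Hoechst fixation, cell-bound probe fluorescence was read by high-content imaging.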
Turning to `CC(C)C[C@@H]1NC(=O)[C@H](Cc2ccc(O)cc2)NC(=O)[C@H](Cc2ccccc2)NC(=O)CSC[C@@H](C(=O)NCC(N)=O)NC(=O)[C@H](CC(C)C)NC(=O)[C@H](Cc2ccccc2)N(C)C(=O)[C@H](Cc2ccc(O)cc2)NC(=O)[C@H](Cc2c[nH]c3ccccc23)NC(=O)[C@H](CCC(=O)O)NC(=O)[C@H](CO)NC(=O)[C@H](Cc2ccc(O)cc2)NC(=O)[C@H](C(C)C)NC1=O` [Example 1053] ({CH2CO}-FYLVYSEWY[NMeF]LCG-NH2; thioether N-12), the IC50 is 760 nM.
With `CC(C)C[C@@H]1NC(=O)[C@H](Cc2ccc(O)cc2)NC(=O)[C@H](Cc2ccccc2)NC(=O)CSC[C@@H](C(=O)NCC(N)=O)NC(=O)[C@H](CC(C)C)NC(=O)[C@H](Cc2ccccc2)N(C)C(=O)[C@H](Cc2ccc(O)cc2)NC(=O)[C@H](Cc2c[nH]c3ccccc23)NC(=O)CNC(=O)[C@H](Cc2c[nH]c3ccccc23)NC(=O)[C@H](CCCNC(=N)N)NC(=O)[C@H](C(C)C)NC1=O` [Example 1054] ({CH2CO}-FYLVRWGWY[NMeF]LCG-NH2; thioether N-12), the IC50 turned out to be 35 nM.
For `CC(C)C[C@@H]1NC(=O)[C@H](Cc2ccc(O)cc2)NC(=O)[C@H](Cc2ccccc2)NC(=O)CSC[C@@H](C(=O)NCC(N)=O)NC(=O)[C@H](CC(C)C)NC(=O)[C@H](Cc2ccccc2)N(C)C(=O)[C@H](Cc2ccc(O)cc2)NC(=O)[C@H](Cc2c[nH]c3ccccc23)NC(=O)CNC(=O)[C@H](Cc2ccc(O)cc2)NC(=O)[C@H](CCCNC(=N)N)NC(=O)[C@H](C(C)C)NC1=O` [Example 1055] ({CH2CO}-FYLVRYGWY[NMeF]LCG-NH2; thioether N-12), the IC50 was 29 nM.
On to `CC(C)C[C@@H]1NC(=O)[C@H](Cc2ccc(O)cc2)NC(=O)[C@H](Cc2ccccc2)NC(=O)CSC[C@@H](C(=O)NCC(N)=O)NC(=O)[C@H](CC(C)C)NC(=O)[C@H](Cc2ccccc2)N(C)C(=O)[C@H](Cc2ccc(O)cc2)NC(=O)[C@H](Cc2c[nH]c3ccccc23)NC(=O)[C@H](CCCCN)NC(=O)[C@H](CO)NC(=O)[C@H](Cc2ccc(O)cc2)NC(=O)[C@H](C(C)C)NC1=O` [Example 1056] ({CH2CO}-FYLVYSKWY[NMeF]LCG-NH2; thioether N-12), for which the IC50 came to 740 nM.
The figure for `CC(C)C[C@@H]1NC(=O)[C@H](Cc2ccccc2)NC(=O)CSC[C@@H](C(=O)NCC(N)=O)NC(=O)[C@H](CC(C)C)NC(=O)[C@H](Cc2ccccc2)N(C)C(=O)[C@H](Cc2ccc(O)cc2)NC(=O)[C@H](Cc2c[nH]c3ccccc23)NC(=O)CNC(=O)[C@H](CO)NC(=O)[C@H](Cc2ccc(O)cc2)NC(=O)[C@H](C(C)C)NC(=O)[C@H](Cc2c[nH]c3ccccc23)NC1=O` [Example 1058] ({CH2CO}-FLWVYSGWY[NMeF]LCG-NH2; thioether N-12) is 755 nM.
In the case of `CC(C)C[C@@H]1NC(=O)[C@H](Cc2ccc(O)cc2)NC(=O)[C@H](Cc2ccccc2)NC(=O)CSC[C@@H](C(=O)NCC(N)=O)NC(=O)[C@H](CC(C)C)NC(=O)[C@H](Cc2ccccc2)N(C)C(=O)C(Cc2ccc(O)cc2)NC(=O)[C@H](Cc2c[nH]c3ccccc23)NC(=O)[C@@H](C)NC(=O)[C@H](CO)NC(=O)[C@H](Cc2ccc(O)cc2)NC(=O)[C@H](C(C)C)NC1=O` (stereo partly shown) [Example 1059] ({CH2CO}-FYLVYS[dA]W[ξY][NMeF]LCG-NH2; thioether N-12), the IC50 is 93 nM.
Regarding `CC(C)C[C@@H]1NC(=O)[C@H](Cc2ccc(O)cc2)NC(=O)[C@H](Cc2ccccc2)NC(=O)CSC[C@@H](C(=O)NCC(N)=O)NC(=O)[C@H](CC(C)C)NC(=O)[C@H](Cc2ccccc2)N(C)C(=O)[C@H](Cc2ccc(O)cc2)NC(=O)[C@H](Cc2c[nH]c3ccccc23)NC(=O)CNC(=O)[C@H](CO)NC(=O)[C@@H](C)NC(=O)[C@H](C(C)C)NC1=O` [Example 1060] ({CH2CO}-FYLV[dA]SGWY[NMeF]LCG-NH2; thioether N-12), the IC50 was 30 nM.
The same measure for `CC(C)C[C@@H]1NC(=O)[C@H](Cc2ccc(O)cc2)NC(=O)[C@H](Cc2ccccc2)NC(=O)CSC[C@@H](C(=O)NCC(N)=O)NC(=O)[C@@H](C)NC(=O)[C@H](Cc2ccccc2)N(C)C(=O)[C@H](Cc2ccc(O)cc2)NC(=O)[C@H](Cc2c[nH]c3ccccc23)NC(=O)CNC(=O)[C@H](CO)NC(=O)[C@H](Cc2ccc(O)cc2)NC(=O)[C@H](C(C)C)NC1=O` [Example 1061] ({CH2CO}-FYLVYSGWY[NMeF][dA]CG-NH2; thioether N-12): 645 nM; for `CC(C)C[C@@H]1NC(=O)[C@H](Cc2ccccc2)N(C)C(=O)[C@H](Cc2ccc(O)cc2)NC(=O)[C@H](Cc2c[nH]c3ccccc23)NC(=O)CNC(=O)[C@H](CO)NC(=O)[C@H](Cc2ccc(O)cc2)NC(=O)[C@H](C(C)C)NC(=O)[C@H](C)N(C)C(=O)[C@H](Cc2ccc(O)cc2)NC(=O)[C@H](Cc2ccccc2)NC(=O)CSC[C@@H](C(=O)NCC(N)=O)NC1=O` [Example 1062] ({CH2CO}-FY[NMeA]VYSGWY[NMeF]LCG-NH2; thioether N-12): 20 nM; for `CC(C)C[C@@H]1NC(=O)[C@H](Cc2ccc(O)cc2)NC(=O)[C@H](C)N(C)C(=O)CSC[C@@H](C(=O)NCC(N)=O)NC(=O)[C@H](CC(C)C)NC(=O)[C@H](Cc2ccccc2)N(C)C(=O)[C@H](Cc2ccc(O)cc2)NC(=O)[C@H](Cc2c[nH]c3ccccc23)NC(=O)CNC(=O)[C@H](CO)NC(=O)[C@H](Cc2ccc(O)cc2)NC(=O)[C@H](C(C)C)NC1=O` [Example 1063] ({CH2CO}-[NMeA]YLVYSGWY[NMeF]LCG-NH2; thioether N-12): 576 nM.
Turning to `CC(C)C[C@@H]1NC(=O)[C@H](Cc2ccc(O)cc2)NC(=O)[C@H](Cc2ccccc2)NC(=O)CSC[C@@H](C(=O)NCC(N)=O)NC(=O)[C@H](C)N(C)C(=O)[C@H](Cc2ccccc2)N(C)C(=O)[C@H](Cc2ccc(O)cc2)NC(=O)[C@H](Cc2c[nH]c3ccccc23)NC(=O)CNC(=O)[C@H](CO)NC(=O)[C@H](Cc2ccc(O)cc2)NC(=O)[C@H](C(C)C)NC1=O` [Example 1064] ({CH2CO}-FYLVYSGWY[NMeF][NMeA]CG-NH2; thioether N-12), the IC50 worked out at 199 nM.
The figure for `CC(C)C[C@@H]1NC(=O)[C@H](Cc2ccc(O)cc2)NC(=O)[C@H](Cc2ccccc2)NC(=O)CSC[C@@H](C(=O)NCC(N)=O)NC(=O)CNC(=O)[C@H](Cc2ccccc2)N(C)C(=O)[C@H](Cc2ccc(O)cc2)NC(=O)[C@H](Cc2c[nH]c3ccccc23)NC(=O)CNC(=O)[C@H](CO)NC(=O)[C@H](Cc2ccc(O)cc2)NC(=O)[C@H](C(C)C)NC1=O` [Example 1065] ({CH2CO}-FYLVYSGWY[NMeF]GCG-NH2; thioether N-12) is 22 nM; for `CC(C)C[C@@H]1NC(=O)[C@H](Cc2ccccc2)N(C)C(=O)[C@H](Cc2ccc(O)cc2)NC(=O)[C@H](Cc2c[nH]c3ccccc23)NC(=O)CNC(=O)[C@H](CO)NC(=O)[C@H](Cc2ccc(O)cc2)NC(=O)[C@H](C(C)C)NC(=O)[C@@H]2CCCN2C(=O)[C@H](Cc2ccc(O)cc2)NC(=O)[C@H](Cc2ccccc2)NC(=O)CSC[C@@H](C(=O)NCC(N)=O)NC1=O` [Example 1066] ({CH2CO}-FYPVYSGWY[NMeF]LCG-NH2; thioether N-12) it is 5 nM.
Take `CC(C)C[C@@H]1NC(=O)[C@H](Cc2ccc(O)cc2)NC(=O)[C@@H]2CCCN2C(=O)CSC[C@@H](C(=O)NCC(N)=O)NC(=O)[C@H](CC(C)C)NC(=O)[C@H](Cc2ccccc2)N(C)C(=O)[C@H](Cc2ccc(O)cc2)NC(=O)[C@H](Cc2c[nH]c3ccccc23)NC(=O)CNC(=O)[C@H](CO)NC(=O)[C@H](Cc2ccc(O)cc2)NC(=O)[C@H](C(C)C)NC1=O` [Example 1067] ({CH2CO}-PYLVYSGWY[NMeF]LCG-NH2; thioether N-12): the IC50 was 515 nM.
Regarding `CC(C)C[C@@H]1NC(=O)CNC(=O)[C@H](Cc2ccccc2)NC(=O)CSC[C@@H](C(=O)NCC(N)=O)NC(=O)[C@H](CC(C)C)NC(=O)[C@H](Cc2ccccc2)N(C)C(=O)[C@H](Cc2ccc(O)cc2)NC(=O)[C@H](Cc2c[nH]c3ccccc23)NC(=O)CNC(=O)[C@H](CO)NC(=O)[C@H](Cc2ccc(O)cc2)NC(=O)[C@H](C(C)C)NC1=O` [Example 1068] ({CH2CO}-FGLVYSGWY[NMeF]LCG-NH2; thioether N-12), the IC50 is 453 nM.
With `CC(C)C[C@@H]1NC(=O)[C@H](Cc2ccc(O)cc2)NC(=O)[C@H](Cc2ccccc2)NC(=O)CSC[C@@H](C(=O)NCC(N)=O)NC(=O)[C@H](CC(C)C)NC(=O)[C@H](Cc2ccccc2)N(C)C(=O)[C@H](Cc2ccc(O)cc2)NC(=O)[C@H](Cc2c[nH]c3ccccc23)NC(=O)CNC(=O)[C@H](CO)NC(=O)[C@H](Cc2ccc(O)cc2)NC(=O)[C@H](CO)NC1=O` [Example 1069] ({CH2CO}-FYLSYSGWY[NMeF]LCG-NH2; thioether N-12), the 50% inhibitory concentration (IC50) came out at 82 nM.
Regarding `CC(C)C[C@@H]1NC(=O)[C@H](Cc2ccccc2)NC(=O)[C@H](Cc2ccc(O)cc2)NC(=O)[C@H](Cc2c[nH]c3ccccc23)NC(=O)CNC(=O)[C@H](CO)NC(=O)[C@H](Cc2ccc(O)cc2)NC(=O)[C@H](C(C)C)NC(=O)[C@H](CC(C)C)NC(=O)[C@H](Cc2ccc(O)cc2)NC(=O)[C@H](Cc2ccccc2)NC(=O)CSC[C@@H](C(=O)NCC(N)=O)NC1=O` [Example 1070] ({CH2CO}-FYLVYSGWYFLCG-NH2; thioether N-12), the IC50 came out at 65 nM.
Consider `CC(C)C[C@@H]1NC(=O)[C@H](Cc2ccc(O)cc2)NC(=O)[C@H](Cc2ccccc2)NC(=O)CSC[C@@H](C(=O)NCC(N)=O)NC(=O)[C@H](CC(C)C)NC(=O)[C@H](Cc2ccccc2)N(C)C(=O)[C@H](Cc2ccc(O)cc2)NC(=O)[C@H](Cc2c[nH]c3ccccc23)NC(=O)[C@H](C)NC(=O)[C@H](CO)NC(=O)[C@H](Cc2ccc(O)cc2)NC(=O)[C@H](C(C)C)NC1=O` [Example 1071] ({CH2CO}-FYLVYSAWY[NMeF]LCG-NH2; thioether N-12), for which the IC50 worked out at 72 nM.
For `CC(C)C[C@@H]1NC(=O)CSC[C@@H](C(=O)NCC(N)=O)NC(=O)[C@H](CC(C)C)NC(=O)[C@H](Cc2ccccc2)N(C)C(=O)[C@H](Cc2ccc(O)cc2)NC(=O)[C@H](Cc2c[nH]c3ccccc23)NC(=O)CNC(=O)[C@H](CO)NC(=O)[C@H](Cc2ccc(O)cc2)NC(=O)[C@H](C(C)C)NC(=O)[C@H](CC(C)C)NC(=O)[C@H](Cc2ccc(O)cc2)NC1=O` [Example 1072] ({CH2CO}-LYLVYSGWY[NMeF]LCG-NH2; thioether N-12), the IC50 is 80 nM.
